Measured values published in the RepoRT retention time repository (doi:10.1038/sdata.2014.29).

Assay: RP, Waters ACQUITY UPLC HSS T3, 150 × 2 mm, 1.7 µm, 30 °C, 0.4 mL/min, estimated dead time 0.75 min; A: water + 0.2% formic acid; B: 2% water + 98% acetonitrile + 0.2% formic acid; gradient (min/%B) 0/0 2.5/0 7.5/10 10/100 12/100 18/0 25/0
Conditions: stereoisomer not certain

Row | LC retention time [min] | SMILES
1 | 1.64 | O[C@@H]1c2c(sc3ccccc23)C=C[C@@H]1O (relative stereo) [cis-1,2-dihydroxy-1,2-dihydrodibenzothiophene]
2 | 10.1 | CC(C=CC1(O)C(C)=CC(=O)CC1(C)C)=CC(=O)O (single isomer, unassigned; (+)) [(+)-abscisic acid]
3 | 1.88 | OCC1OC(OC2(COC3(CO)OC(CO)C(O)C3O)OC(CO)C(O)C2O)C(O)C(O)C1O (stereo not given) [1-kestose]
4 | 1.64 | C[C@](O)(CO)[C@H](O)COP(=O)(O)O [2-C-methyl-D-erythritol 4-(dihydrogen phosphate)]
5 | 4.46 | O=C(O)c1ccco1 [2-furoic acid]
6 | 3.04 | O=C(O)CCC(=O)C(=O)O [2-oxoglutaric acid]
7 | 9.11 | O=C(O)/C=C/c1ccc(O[C@@H]2O[C@H](CO)[C@@H](O)[C@H](O)[C@H]2O)cc1 [4-O-beta-D-glucosyl-4-coumaric acid]
8 | 8.99 | O=C(O)C=Cc1ccc(O)cc1 [4-coumaric acid]
9 | 9.88 | O=C(O)c1ccc(O)cc1 [4-hydroxybenzoic acid]
10 | 1.62 | OCC=Cc1ccc(O)cc1 [4-hydroxycinnamyl alcohol]
11 | 9.46 | CC(C)CC(=O)C(=O)O [4-methyl-2-oxopentanoic acid]
12 | 4.72 | O=C1CC[C@@H](C(=O)O)N1 [5-oxo-L-proline]
13 | 1.55 | O=C(O)[C@H](O)[C@@H](O)[C@H](O)[C@H](O)COP(=O)(O)O [6-phospho-D-gluconic acid]
14 | 9.3 | O=C(O)C(=O)[C@H](O)COP(=O)(O)O [(R)-3-hydroxy-2-oxo-4-phosphonooxybutanoic acid]
15 | 2.28 | O=C(O)CCCCC1CCSS1 [(R)-lipoic acid]
16 | 11.6 | CC(=O)OC(C)(C)C1CCC2(C)COC3(C)C=COC23C1 (stereo not given) [AC1L9CQ2]
17 | 8.96 | O=C(O)C=Cc1ccc(O)c(OC2OC(CO)C(O)C(O)C2O)c1 (stereo not given) [Caffeic acid 3-glucoside]
18 | 1.67 | O=C[C@H](O)[C@H](O)CO [D-erythrose]
19 | 1.61 | O=C(O)[C@H](O)[C@@H](O)[C@H](O)[C@H](O)CO [D-gluconic acid]
20 | 2.02 | O=C1O[C@H](CO)[C@@H](O)[C@H](O)[C@H]1O [D-glucono-1,5-lactone]
21 | 1.69 | O=C(O)[C@H](O)[C@@H](O)[C@H](O)CO [D-xylonic acid]
22 | 1.61 | O=C(O)C1OC(O)C(O)C(O)C1O (stereo not given) [Glucuronic Acid]

Row | LC retention time [min] | SMILES
23 | 1.44 | C[C@H]([NH3+])C(=O)[O-] [L-alanine]
24 | 1.48 | NC(=O)C[C@H](N)C(=O)O [L-asparagine]
25 | 1.53 | N[C@@H](CC(=O)O)C(=O)O [L-aspartic acid]
26 | 5.34 | CC[C@H](C)[C@H](N)C(=O)O [L-isoleucine]
27 | 1.92 | Nc1ncnc2c1ncn2[C@@H]1O[C@H](CSCC[C@H]([NH3+])C(=O)[O-])[C@@H](O)[C@H]1O [S-adenosyl-L-homocysteine]
28 | 6.01 | Nc1ncnc2c1ncn2C1OC(CO)C(O)C1O (stereo not given) [adenosine]
29 | 1.76 | NC(=O)NC1NC(=O)NC1=O (stereo not given) [allantoin]
30 | 1.58 | OCC1OC(OC2OC(CO)C(O)C(O)C2O)C(O)C(O)C1O (stereo not drawn) [alpha,alpha-trehalose]
31 | 9.61 | O=C(O)CCCCCCCC(=O)O [azelaic acid]
32 | 1.73 | CC1(C)SC2C(NC(=O)C(C(=O)O)c3ccccc3)C(=O)N2C1C(=O)O (stereo not given) [carbenicillin]
33 | 9.09 | O=C(C=Cc1ccc(O)c(O)c1)OC1CC(O)(C(=O)O)CC(O)C1O (stereo not given) [chlorogenic acid]
34 | 1.68 | C=CC=C(O)C(=O)O [cis-2-hydroxypenta-2,4-dienoic acid]
35 | 4.46 | O=C(O)C=C(CC(=O)O)C(=O)O [cis-aconitic acid]
36 | 1.58 | O=C(O)C1OC(OC2C(C(=O)O)OC(O)C(O)C2O)C(O)C(O)C1O (stereo not given) [digalacturonic acid]
37 | 1.67 | CC(C(=O)[O-])=C(C)C(=O)[O-] [dimethylmaleate(2-)]
38 | 1.47 | O=P([O-])([O-])OP(=O)([O-])[O-] [diphosphate(4-)]
39 | 4.43 | CC(=O)NC=CSC1=C(C(=O)O)N2C(=O)C(C(C)OS(=O)(=O)O)C2C1 (stereo not given) [epithienamycin E]
40 | 2.46 | O=C(O)C=CC(=O)O [fumaric acid]
41 | 1.57 | O=C([O-])C(O)C(O)C(O)C(O)C(=O)[O-] (stereo not given) [glucarate(1-)]
42 | 1.62 | NC(CCC(=O)O)C(=O)O (stereo not given) [glutamic acid]
43 | 1.92 | O=C(O)C(O)CO (stereo not given) [glyceric acid]
44 | 1.53 | O=P(O)(O)OC(CO)CO [glycerol 2-phosphate]

Row | LC retention time [min] | SMILES
45 | 9.3 | O=C(CO)COP(=O)(O)O [glycerone phosphate]
46 | 3.02 | O=C(CO)CO [glycerone]
47 | 1.57 | C[N+](C)(C)CC(=O)[O-] [glycine betaine]
48 | 6.32 | Nc1nc2c(ncn2C2OC(CO)C(O)C2O)c(=O)[nH]1 (stereo not given) [guanosine]
49 | 1.43 | NC(Cc1cnc[nH]1)C(=O)O (stereo not given) [histidine]
50 | 1.75 | O=c1[nH]cnc2nc[nH]c12 [hypoxanthine]
51 | 1.66 | COc1c2ccoc2c(OC)c2oc(=O)ccc12 [isopimpinellin]
52 | 10.2 | CC1=CC2=CC(C)CC23OC(=C(C)C3=O)CC(C)(C)C=CC1=O (stereo not given) [jatrophone]
53 | 2.44 | O=C(O)CC(O)C(=O)O (stereo not given) [malic acid]
54 | 2.64 | O=C(O)CC(=O)O [malonic acid]
55 | 1.9 | CS(=O)(=O)CCC(N)C(=O)O (stereo not given) [methionine sulfone]
56 | 10.7 | COC(=O)[C@@H](N)Cc1ccc(O)cc1 [methyl L-tyrosinate]
57 | 10.5 | C#CC1(OC(C)=O)CCC2C3CCC4=CC(=O)CCC4C3CCC21C (stereo not given) [norethindrone acetate]
58 | 11.8 | CCCCCCCCCCCCOCCOCCOCCOCCOCCO [pentaethylene glycol monododecyl ether]
59 | 2.79 | O=C(O)C1CCCCN1 (stereo not given) [pipecolic acid]
60 | 4.6 | CC(=O)C(=O)O [pyruvic acid]
61 | 9.43 | O=C(O)CCCCCCC(=O)O [suberic acid]
62 | 5.35 | O=C(O)CCC(=O)O [succinic acid]
63 | 1.81 | O=P(O)(O)OCC1OC(CO)(OC2OC(CO)C(O)C(O)C2O)C(O)C1O (stereo not given) [sucrose 6(F)-phosphate]
64 | 8.87 | NC(Cc1c[nH]c2ccccc12)C(=O)O (stereo not given) [tryptophan]
65 | 5.79 | O=c1ccn(C2OC(CO)C(O)C2O)c(=O)[nH]1 (stereo not given) [uridine]
66 | 4.71 | O=C(O)c1nc2[nH]c(=O)[nH]c(=O)c2[nH]1 [xanthine-8-carboxylic acid]

Row | SMILES | LC retention time [min]
67 | O=C(COP(=O)(O)O)Cc1cnc[nH]1 [3-(imidazol-4-yl)-2-oxopropyl dihydrogen phosphate] | 2.09
68 | N#CCC(N)C(=O)O (stereo not given) [3-cyanoalanine] | 1.51
69 | CC(=O)OC1CC(C)C(C=O)C2(O)C1C(C)(C)CC2(C)C=O (stereo not given) [botrydial] | 13.5
70 | C=CC#CC#CC1=CC=C(C#CC)SS1 [thiarubrine A] | 1.97
